Results taken from patent publication US12391659B2, “Benzothiazole and related compounds” (Spinogenix, Inc., priority 2017, dated 2025).

Tested on: primary mouse cortical neurons
Assay: In vitro spinogenesis: synaptophysin (P38) puncta / synapse count in primary mouse cortical neurons
Format: cell-based
Conditions: for number of synaptic puncta (P38-immunopositive) compared to the vehicle control: 5 μM, 24 hours of treatment starting at DIV 15, DIV 16 neurons; for increase in the number of synapses compared to the control: 1 μM, 24 hrs of treatment starting at DIV 15, DIV 16 neurons
From the text: Compounds of the current invention bind to the actin bundling protein, fascin, and prevent the formation of long, stiff actin cytoskeleton, thereby promoting dendritic spine formation. (see, Sedeh, R. S. et al. J. Mol. Biol. 400, 589-604 (2010); Chen, L. et al. Nature 464, 1062-1066 (2010); Jansen, S. et al. J. Biol. Chem. 286, 30087-30096 (2011); Yang, S. et al. J. Biol. Chem. 288, 274-284 (2013); Zheng, S. et al. J. Med. Chem. 57, 6653-6667 (2014)). […] Specifically, the Benzothiazole-IIIA and Benzothiazole-IIIB compounds of the instant invention, as well as the Benzothiazole-I compound as described in International application number PCT/US2017/012139, were used in this study (FIG. 1).
Primary mouse cortical neurons were treated with 5 μM of Benzothiazole-I, Benzothiazole-IIIA, or Benzothiazole-IIIB at DIV 15. As a control, primary mouse cortical neurons were treated with the vehicle only (10% DMSO, 90% phosphate buffered saline (PBS)). After 24 hours, the DIV 16 neurons were fixed, immunostained using the presynaptic vesicle protein synaptophysin (P38), counterstained with the nuclear dye DAPI (4′,6-diamidino-2-phenylindole,), and counted. Immunolabeled neurons were imaged on a Leica confocal microscope. The numbers of P38-immunopositive puncta were analyzed using FIJI with the Squash plugin (FIG. 2).
In a similar experiment, the primary mouse cortical neurons were treated with 1 μM of Benzothiazole-I or Benzothiazole-IIIB at DIV 15, using the same DMSO/PBS buffer solution described above as the control vehicle. After 24 hours, the DIV 16 neurons were fixed, immunolabeled with synaptophysin, stained with DAPI, and counted as described above.

Row | Structure (SMILES) | number of synaptic puncta (P38-immunopositive) compared to the vehicle control | increase in the number of synapses compared to the control [%]
1 | OCCOCCOCCOCCOCCOCCOc1ccc(-c2nc3ccccc3s2)cc1 [Benzothiazole-IIIA] | increase | 
2 | OCCOCCOCCOCCOc1ccc(-c2nc3ccccc3s2)cc1 [Benzothiazole-IIIB, 2-(2-(2-(2-(4-(benzo[d]thiazol-2-yl)phenoxy)ethoxy)ethoxy)ethoxy)ethan-1-ol] | increase | ~100
3 | Cc1ccc2nc(-c3ccc(NCCOCCOCCOCCO)cc3)sc2c1 [Benzothiazole-I, ((4-(6-methylbenzo[d]thiazol-2-yl)phenyl)amino)-(CH2CH2O)4H, reference compound] | increase | ~100
